Data taken from the METLIN SMRT retention time set (Domingo-Almenara et al. 2019).

Experiment: gradient 5% acetonitrile 3 min, to 50% in 2 min, to 85% in 15 min, held 3 min, 100 µL/min
Settings: column: Zorbax Extend-C18 2.1 x 50 mm; eluents: water / acetonitrile, 0.1% formic acid
Summary of the method: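 Each retention time is based on an adduct peak selected computationally and verified by manual inspection. Measurements used HPLC–quadrupole time-of-flight mass spectrometry in positive and negative ionization mode on mixtures of ~100 pure standards. Chromatography ran on a Zorbax Extend-C18 column (2.1 × 50 mm, 1.8 μm) at 100 μL/min with water and acetonitrile, each containing 0.1% formic acid, and dead and dwell volumes of 40 μL and 900 μL.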

Structure (SMILES)	RP-LC retention time
CN(CCc1noc(-c2ccc(F)cc2)n1)C(=O)Nc1ccc(F)cc1	864 s
CCN(CC)c1nc(C(=O)NCCN2CCOCC2)nc2nc(C)cc(C)c12	558 s
COc1ccc2nc(-n3nc(C)cc3NC(=O)c3ccc([N+](=O)[O-])o3)sc2c1	1220 s
Cc1ccc(Nc2nc(N)nc(CN3CCN(c4ccccn4)CC3)n2)cc1	590 s
CC(C)c1cc(N2CCN(C(=O)c3ccc4c(c3)OCO4)CC2)nc2nncn12	610 s
CCn1cc(C)c(C(=O)O)c1CC(=O)Nc1cc(C)cc(C)c1	907 s
O=C(c1ccc(Cl)c(Cl)c1)N1CCN(c2ccc(-c3ccco3)nn2)CC1	733 s
COc1cc(OC)cc(C(=O)NC2CCN(Cc3c(C)noc3C)C2)c1 (stereo unspecified)	613 s
Cc1cc(N)c2cc(NC(=O)/C=C\c3ccccc3Cl)ccc2n1	751 s
COc1ccc(C(=O)NC2CCN(c3ccc(N4CCSCC4)nn3)CC2)c(OC)c1	644 s
COc1ccc(NC(=O)c2ccc(-c3cncnc3)nc2)cc1Cl	735 s
COc1cccc(CNC(=O)c2cn3cccc(C)c3n2)c1OC	541 s
COc1ccc(CCC(=O)N(C)CCc2noc(COc3ccc(OC)cc3)n2)cc1	911 s
Cc1cc(Cl)ccc1NC(=O)c1cnc(-c2ccccc2)nc1-c1ccncc1	956 s
Cc1ccc(F)cc1NC(=O)c1c(O)c2cccnc2n(-c2ccc(F)cc2)c1=O	1290 s
O=C(c1ccc(Cl)s1)N1CCCCC1c1nncn1CC1CC1 (stereo unspecified)	800 s
CCc1noc(NC(C)=O)c1-c1ccc(OC)c(S(=O)(=O)NC2CC2)c1	679 s
Cc1ccc(Sc2nccnc2N2CCC(C(=O)N3CCN(c4ccc(F)cc4)CC3)CC2)cc1	1200 s
CCCn1c(=O)c(C)nc2cc(-c3noc(-c4cccs4)n3)ccc21	1120 s
O=C(CN1CCN(Cc2nc(-c3ccc(N4CCCCC4)nc3)no2)CC1)N1CCCC1	587 s
COc1cc(OC)cc(-c2nnc(Cc3nc(-c4cccc(Cl)c4)no3)o2)c1	1130 s
CCC(=O)Nc1ccc(SCC(=O)Nc2ccc(F)c(Cl)c2)nn1	772 s
COc1cc(Nc2nc3ccccc3nc2NS(=O)(=O)c2ccc(NC(=O)c3ccc(C)c(OC)c3)cc2)cc(OC)c1	1240 s
Cc1cccc(S(=O)(=O)N(C)CC2CCOC2)c1 (stereo unspecified)	811 s
COc1ccc(OC)c(S(=O)(=O)NC2CCCN(c3ccc(=O)n(C)n3)C2)c1 (stereo unspecified)	702 s
COc1cc(-c2nc3ncccn3c2Nc2cccc(C(F)(F)F)c2)ccc1O	700 s
CCN(CC)S(=O)(=O)c1cc(-c2nnc(-c3ccc(OC)c(OC)c3)o2)ccc1C	991 s
CCc1nn2c(nnc3c(=O)n(CCc4c[nH]c5ccccc45)ccc32)c1-c1ccc(F)cc1	1040 s
CC(C)n1cc(S(=O)(=O)Nc2cc(F)ccc2Cl)c2cccnc21	989 s
Cc1ccc(NC(=O)c2cc(C(C)C)n(C3CCS(=O)(=O)C3)n2)cc1 (stereo unspecified)	901 s

Results, then the compound that gave them:

RP-LC retention time	Structure (SMILES)
788 s	CCCCNC(=O)C1CCN(Cc2cc3ccccc3n2Cc2ccccc2Cl)CC1
640 s	COc1ccc(-c2nnc(CC(=O)NC3CC3)o2)cc1
680 s	CC1CN(CCc2ccccc2)c2nc3c(c(=O)n(CCN4CCOCC4)c(=O)n3C)n2C1 (stereo unspecified)
826 s	COc1ccc(C2(C(=O)N3C[C@H]4C[C@H](C3)[C@H]3CCCC(=O)N3C4)CCCCC2)cc1
736 s	Cn1cc(CC(=O)NCc2ccc(Br)cc2)c2cccnc21
763 s	CN1C(=O)CCC2(CNC(=O)NCCc3ccccc3)CCCC=C12 (stereo unspecified)
770 s	O=C(NCc1ccccc1F)c1ccc(CN2CCN(Cc3ccccc3)C(=O)C2=O)cc1
772 s	Cc1cc(NC(=O)Cc2cc(-c3ccccc3F)on2)no1
742 s	Cc1nn(-c2ccc(F)cc2)c(C)c1S(=O)(=O)N1CCC(C(=O)NCC2CCCO2)CC1 (stereo unspecified)
673 s	Cc1cccc(OCc2nc(-c3ccc4c(c3)ncn4CCN3CCCC3)no2)c1
933 s	COc1ccc(F)cc1S(=O)(=O)NCC1(c2cccs2)CC1
974 s	Cc1cc(C)n(Cc2nc(-c3ccc(NC(=O)COc4ccccc4)cc3)oc2C)n1
610 s	O=C(C1CCCO1)N1CCC2(CC1)NCCc1c2[nH]c2ccccc12 (stereo unspecified)
856 s	Cc1cccc(NC(=O)COc2cc(C)nc(N3CCN(c4ccccc4)CC3)n2)c1
706 s	O=C(CCc1nc2cccnc2n1-c1ccccc1)NCCc1c[nH]c2ccccc12
746 s	O=C(c1ccccc1Br)N1CCCN(C(=O)C2CC2)c2ccccc21
1010 s	Cc1cc(C)cc(NC(=O)Cn2nc(N3CCCC3)c3ccccc3c2=O)c1
656 s	O=C(NCc1cccs1)NCC1CC(=O)N(Cc2ccc(F)cc2)C1 (stereo unspecified)

RP-LC retention time	Structure (SMILES)
682 s	CSc1cccc(NC(=O)CSc2ccc(N3CCCC(C(=O)NC4CC4)C3)nn2)c1 (stereo unspecified)
642 s	Cc1ccc2c(Nc3ccc(C)c(F)c3)c(C(=O)N3CCSCC3)cnc2n1
802 s	Cc1cc(C2CCCN2C(=O)Nc2ccccc2Cl)no1 (stereo unspecified)
805 s	CCN1c2ccccc2C(=O)NC12CCN(C(=O)Cc1ccc(OC)cc1)CC2
832 s	Cc1ccc(S(=O)(=O)N2CCCC(Cn3c(C4CC4)nc4cccnc43)C2)c(C)c1 (stereo unspecified)
822 s	COc1cccc(-n2c(N3CCCC(C(=O)NCc4cccs4)C3)nc3ccsc3c2=O)c1 (stereo unspecified)
638 s	Cc1ccc(C)c(NC(=O)NCCn2c(-c3ccncc3)nc3cccnc32)c1
637 s	COc1ccccc1N1CCN(CCCNc2cc(=O)n(C)c(=O)n2C)CC1
601 s	Cc1nn(CC(=O)NCCN(C)C)c(=O)c2nc(-c3ccccc3)sc12
615 s	Cc1ccccc1OCC(=O)NC1CCN(Cc2c(C)noc2C)CC1
674 s	COC(=O)Cn1c(C2CC(=O)N(c3ccccc3OC)C2)nc2ccccc21 (stereo unspecified)
1010 s	Cc1nnc(-c2coc(S(=O)(=O)N3CCC(Cc4ccccc4)CC3)c2)o1
859 s	CCOc1ccc(NC(=O)N2CCCC2c2nc(-c3ccccc3OC)no2)cc1 (stereo unspecified)
647 s	COc1ccccc1C(CNC(=O)c1cc(=O)c2cc(Cl)ccc2o1)N(C)C (stereo unspecified)
985 s	Cc1ccc(NC(=O)Cn2nc3cc(-c4ccccc4)nc(C)n3c2=O)c(C)c1
558 s	Cc1cc(N2CCN(C(=O)c3ccccc3)CC2)nc2nncn12
795 s	COCCN1C(=O)CCc2cc(NS(=O)(=O)c3c(C)cccc3Cl)ccc21
879 s	Cc1ccc(NC(=O)C2CCCN(S(=O)(=O)c3cn(C(C)C)cn3)C2)cc1Cl (stereo unspecified)
